pIC50: −log10 of the molar value. Each block holds one compound with its values, some of them ahead of it.
Legend:
[1] = molecular target: T1, recombinant form of Glutaminase 1 (GAC) (Homo sapiens, UniProt O94925); assay: Recombinant Enzyme Assay (GAC coupled to GDH, NADH absorbance, no preincubation); format: biochemical; conditions: no preincubation; read-out: GAC Delta N2 IC50 no preinc
Procedure, shortened: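 GAC (4 nM) in Tris-HCl pH 8.0 with 150 mM K2HPO4, EDTA, BSA, DTT, plus 4 units/ml GDH and 4 mM ADP, without preincubation. Absorbance at 340 nm was read kinetically for 15 min at 20° C. Slopes (mAU/min) were compared with DMSO-only and control-compound wells on the same plate.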

[2] = molecular target: T1, recombinant form of Glutaminase 1 (GAC); assay: Recombinant Enzyme Assay - Time Dependence (60 minutes enzyme/compound preincubation); format: biochemical
Description: The enzyme/compound mix was sealed with sealing foil (USA Scientific) and allowed to incubate, with mild agitation, for 60 minutes at 20° C. Enzymatic reaction was started with the addition of 50 μL of substrate solution (50 mM Tris-HCl pH 8.0, 0.2 mM EDTA, 150 mM K2HPO4, 0.1 mg/ml BSA, 1 mM DTT, 20 mM L-glutamine, 2 mM NAD^+, and 10 ppm antifoam) and read in a Molecular Devices M5 plate reader at 20° C. The plate reader was configured to read absorbance (λ=340 nm) in kinetic mode for 15 minutes. Data was recorded as milli-absorbance units per minute and slopes were compared to a control compound and a DMSO-only control on the same plate. Compounds with slopes less than the DMSO control were considered inhibitors and plate variability was assessed using the control compound.

Caco-2 cell monolayers = assay: Caco-2 Permeability Assay (bidirectional); format: in vitro ADME
Description: (§1) Caco-2 cells are commonly used in a confluent monolayer on a cell culture insert filter. When cultured in this format and under specific conditions, the cells become differentiated and polarized such that their phenotype, morphologically and functionally resembles the enterocytes lining the small intestine. The cell monolayer provides a physical and biochemical barrier to the passage of small molecules, and is widely used across the pharmaceutical industry as an in vitro model of the human small intestinal mucosa to predict the absorption of orally administered drugs (Hidalgo et al., Gastroenterology, 1989; Artursson, J. Pharm. Sci., 1990). The correlation between the in vitro apparent permeability (P ? app) across Caco-2 monolayers and the in vivo absorption is well established (Artursson et al., Biochem. Biophys. Res. Comm., 1991).
(§2) The present assay was used to determine the bidirectional permeability of the compounds of the invention through Caco-2 cell monolayers. Caco-2 cells were grown in confluent monolayers where the media of both the apical (A) and basolateral (B) sides were at pH 7.4. Compounds were dosed at 1 μM in the presence of 200 μM Lucifer Yellow, on the apical side (A→B) or the basolateral side (B→A) for assessment, in duplicate.
(§3) The absorption potential of compounds were classified as either Low (P-app <1×10^−6 cm/s) or High (P-app >1×10^−6 cm/s).

[3] = Caco-2 Permeability Assay (bidirectional); format: in vitro ADME; conditions: human; for recovery at 120 min, 1 μM / Papp A→B at 120 min, 1 μM / Papp B→A at 120 min, 1 μM: pH 7.4; for efflux ratio at 120 min, 1 µM / Papp A→B at 120 min, 1 μM / Papp B→A at 120 min, 1 μM / permeability class (Low/High absorption potential) at 120 min, 1 µM: Caco-2; for efflux ratio at 120 min, 1 µM: (Papp B→A)/(Papp A→B); for Papp A→B at 120 min, 1 μM: Direction A→B; for Papp A→B at 120 min, 1 μM / Papp B→A at 120 min, 1 μM: unit not given (thresholds in 10^−6 cm/s); for Papp B→A at 120 min, 1 μM: Direction B→A; for permeability class (Low/High absorption potential) at 120 min, 1 µM: read-out: Permeability Classification
Description: as §1, §2, §3

[4] = read-out: GAC Delta N2 IC50 60 min preinc
[5] = read-out: GAC Delta N2 IC50 60 min

pIC50 [1]: 6.42
pIC50 [2, 4]: 6.85
Compound: O=C(Nc1nnc(CCCCc2nnc(NC(=O)[C@@H](O)c3ccccc3)s2)s1)[C@@H](O)c1ccccc1 [Compound 92]

Compound: O=C(Cc1cccc(Br)c1)Nc1nnc(CCSCCc2nnc(NC(=O)Cc3cccc(Br)c3)s2)s1 [Compound 270]
pIC50 [1]: 5.13
pIC50 [2, 4]: < 5.30

Compound: CC(C)(C)OC(=O)N1CCN(Cc2cccc(CC(=O)Nc3nnc(CCSCc4nnc(NC(=O)Cc5cccc(CN6CCN(C(=O)OC(C)(C)C)CC6)c5)s4)s3)c2)CC1 [Compound 275]
pIC50 [1]: 5.66
pIC50 [2, 4]: 6.82

pIC50 [1]: 6.17
pIC50 [2, 4]: 7.40
Compound: O=C(Nc1nnc(CCCCc2nnc(NC(=O)C(O)c3cccc(Br)c3)s2)s1)C(O)c1cccc(Br)c1 (centres unmarked) [Compound 288]

pIC50 [1]: 6.28
pIC50 [2, 4]: 7.51
Compound: O=C(Nc1nnc(CCCCc2nnc(NC(=O)C(O)c3cccc(Cl)c3)s2)s1)C(O)c1cccc(Cl)c1 (centres unmarked) [Compound 306]

recovery at 120 min, 1 μM ([3]; Caco-2, pH 7.4, Direction A→B): 73%
recovery at 120 min, 1 μM ([3]; Caco-2, pH 7.4, Direction B→A): 82%
efflux ratio at 120 min, 1 µM [3]: 18
Papp A→B at 120 min, 1 μM [3]: 2.45 ×10⁻⁶ cm/s
Papp B→A at 120 min, 1 μM [3]: 44.5 ×10⁻⁶ cm/s
permeability class (Low/High absorption potential) at 120 min, 1 µM [3]: > 1 ×10⁻⁶ cm/s
Compound: O=C(Cc1ccccc1)Nc1ccc(CCCCc2nnc(NC(=O)C(O)c3cccc(Cl)c3)s2)nn1 (centres unmarked) [Compound 318]
Significant Efflux (Caco-2 cell monolayers): Yes (efflux ratios being significant when greater than or equal to 3 when the Papp (B→A) was greater than or equal to 1×10^−6 cm/s)

recovery at 120 min, 1 μM ([3]; Caco-2, pH 7.4, Direction A→B): 73%
recovery at 120 min, 1 μM ([3]; Caco-2, pH 7.4, Direction B→A): 80%
Papp A→B at 120 min, 1 μM [3]: 2.39 ×10⁻⁶ cm/s
Papp B→A at 120 min, 1 μM [3]: 41.6 ×10⁻⁶ cm/s
permeability class (Low/High absorption potential) at 120 min, 1 µM [3]: > 1 ×10⁻⁶ cm/s
Compound: CC(C)(C)OC(=O)NCc1cccc(CC(=O)Nc2nnc(CCCCc3ccc(NC(=O)Cc4ccccc4)nn3)s2)c1 [Compound 339]
Significant Efflux (Caco-2 cell monolayers): Yes (efflux ratios being significant when greater than or equal to 3 when the Papp (B→A) was greater than or equal to 1×10^−6 cm/s)

recovery at 120 min, 1 μM ([3]; Caco-2, pH 7.4, Direction A→B): 117%
recovery at 120 min, 1 μM ([3]; Caco-2, pH 7.4, Direction B→A): 101%
Papp A→B at 120 min, 1 μM [3]: 1.38 ×10⁻⁶ cm/s
Papp B→A at 120 min, 1 μM [3]: 45 ×10⁻⁶ cm/s
permeability class (Low/High absorption potential) at 120 min, 1 µM [3]: > 1 ×10⁻⁶ cm/s
Compound: O=C(Cc1ccccc1)Nc1ccc(CCCCc2nnc(NC(=O)Cc3ccccn3)s2)nn1 [Compound 354]
Significant Efflux (Caco-2 cell monolayers): Yes (efflux ratios being significant when greater than or equal to 3 when the Papp (B→A) was greater than or equal to 1×10^−6 cm/s)

recovery at 120 min, 1 μM ([3]; Caco-2, pH 7.4, Direction A→B): 44%
recovery at 120 min, 1 μM ([3]; Caco-2, pH 7.4, Direction B→A): 57%
efflux ratio at 120 min, 1 µM [3]: 6.6
Papp A→B at 120 min, 1 μM [3]: 3.75 ×10⁻⁶ cm/s
Papp B→A at 120 min, 1 μM [3]: 24.7 ×10⁻⁶ cm/s
permeability class (Low/High absorption potential) at 120 min, 1 µM [3]: > 1 ×10⁻⁶ cm/s
Compound: CC(C(=O)Nc1ccc(CCCCc2nnc(NC(=O)Cc3cccc(CNC(=O)OC(C)(C)C)c3)s2)nn1)c1ccccc1 (centres unmarked) [Compound 436]
Significant Efflux (Caco-2 cell monolayers): Yes (efflux ratios being significant when greater than or equal to 3 when the Papp (B→A) was greater than or equal to 1×10^−6 cm/s)

pIC50 [2, 5]: 7.72
Compound: CC(C)(C)OC(=O)N1CCN(Cc2cc(CC(=O)Nc3nnc(CCCCc4ccc(NC(=O)Cc5ccccc5)nn4)s3)ccc2F)CC1 [Compound 493]

pIC50 [2, 5]: 7.72
Compound: O=C(Cc1ccccc1)Nc1ccc(CCCCc2nnc(NC(=O)Cc3ccc(F)c(CN4CCNCC4)c3)s2)nn1 [Compound 494]

pIC50 [2, 5]: 8.15
Compound: O=C(Cc1ccccc1)Nc1ccc(CCCCc2nnc(NC(=O)C(O)c3ccc(-c4ccccc4)cc3OCCO)s2)nn1 (centres unmarked) [Compound 504]

pIC50 [2, 5]: 7.89
Compound: CC(C)(C)OC(=O)NCc1cccc(CC(=O)Nc2nnc(CCCCc3ccc(NC(=O)C(O)(CO)c4ccccc4)nn3)s2)c1 (centres unmarked) [Compound 507]

pIC50 [2, 5]: 7.96
Compound: COC(C(=O)Nc1ccc(CCCCc2nnc(NC(=O)Cc3cccc(CNC(=O)OC(C)(C)C)c3)s2)nn1)c1ccccc1 (centres unmarked) [Compound 508]

pIC50 [2, 5]: 8.00
Compound: COC(C(=O)Nc1nnc(CCCCc2ccc(NC(=O)Cc3cccc(CNC(=O)OC(C)(C)C)c3)nn2)s1)c1ccccc1 (centres unmarked) [Compound 509]

pIC50 [2, 5]: 6.24
Compound: O=C(Cc1ccccc1)Nc1ccc(CCCCc2nnc(NC(=O)CC3=CN4CCCN=C4S3)s2)nn1 [Compound 511]

pIC50 [1]: 6.89
pIC50 [2, 4]: 7.62
Compound: O=C(Cc1ccccc1)Nc1nnc(CCCCc2nnc(NC(=O)C(O)c3cccc(Cl)c3)s2)s1 (centres unmarked) [Compound 527]

pIC50 [2, 5]: 8.15
Compound: CC(=O)N1CCN(Cc2cc(CC(=O)Nc3nnc(CCCCc4ccc(NC(=O)Cc5ccccc5)nn4)s3)ccc2F)CC1 [Compound 528]

pIC50 [2, 5]: 7.49
Compound: CC(C)(C)OC(=O)NCc1cccc(CC(=O)Nc2nnc(CCCCc3ccc(NC(=O)C4(C)COC(C)(C)OC4)nn3)s2)c1 [Compound 529]

pIC50 [2, 5]: 8.15
Compound: Cc1ccccc1CC(=O)Nc1nnc(CCCCc2ccc(NC(=O)Cc3ccccc3Cl)nn2)s1 [Compound 535]

pIC50 [2, 5]: 8.22
Compound: Cc1ccccc1CC(=O)Nc1nnc(CCCCc2ccc(NC(=O)Cc3ccccc3F)nn2)s1 [Compound 536]

pIC50 [2, 5]: < 4.70
Compound: CCCC(=O)OCN(C(=O)Cc1cccc(CNC(=O)OC(C)(C)C)c1)c1nnc(CCCCc2ccc(NC(=O)Cc3ccccc3)nn2)s1 [Compound 552]

pIC50 [2, 5]: 7.60
Compound: CC(C)Cc1ccc(C(C)C(=O)Nc2nnc(CCCCc3ccc(NC(=O)Cc4ccccc4)nn3)s2)cc1 (centres unmarked) [Compound 557]

pIC50 [2, 5]: 8.22
Compound: O=C(Cc1ccccc1F)Nc1ccc(CCCCc2nnc(NC(=O)Cc3ccccc3Cl)s2)nn1 [Compound 566]

pIC50 [2, 5]: 6.37
Compound: CCCC(=O)OCN(C(=O)C(CO)c1cccc(CNC(=O)OC(C)(C)C)c1)c1nnc(CCCCc2ccc(NC(=O)Cc3ccccc3)nn2)s1 (centres unmarked) [Compound 567]

pIC50 [2, 5]: 8.05
Compound: CC(C(=O)Nc1nnc(CCCCc2ccc(NC(=O)Cc3ccccc3)nn2)s1)c1ccc(F)c(CNC(=O)OC(C)(C)C)c1 (centres unmarked) [Compound 568]

pIC50 [2, 5]: 8.22
Compound: CN(Cc1cc(CC(=O)Nc2nnc(CCCCc3ccc(NC(=O)Cc4ccccc4)nn3)s2)ccc1F)C(=O)OC(C)(C)C [Compound 569]

pIC50 [2, 5]: 6.37
Compound: CCCC(=O)OCN(C(=O)Cc1cccc(CC(=O)N2CCC(F)(F)CC2)c1)c1nnc(CCCCc2ccc(NC(=O)Cc3ccccc3)nn2)s1 [Compound 570]

pIC50 [2, 5]: 8.22
Compound: CCOC(=O)NCc1cc(C(C)C(=O)Nc2nnc(CCCCc3ccc(NC(=O)Cc4ccccc4)nn3)s2)ccc1F (centres unmarked) [Compound 574]

pIC50 [2, 5]: 8.40
Compound: CC(C(=O)Nc1nnc(CCCCc2ccc(NC(=O)Cc3cccc(CNC(=O)OCCF)c3)nn2)s1)c1ccccc1 (centres unmarked) [Compound 591]

pIC50 [2, 5]: 8.00
Compound: CC(C(=O)Nc1ccc(CCCCc2nnc(NC(=O)Cc3ccccc3)s2)nn1)c1ccc(F)c(CN(C)C(=O)OC(C)(C)C)c1 (centres unmarked) [Compound 599]

pIC50 [2, 5]: 8.05
Compound: CC(NC(=O)OC(C)(C)C)c1cccc(CC(=O)Nc2ccc(CCCCc3nnc(NC(=O)C(C)c4ccccc4)s3)nn2)c1 (centres unmarked) [Compound 603]

pIC50 [2, 5]: 7.82
Compound: COC(C(=O)Nc1nnc(CCCCc2ccc(NC(=O)Cc3cccc(CNC(=O)CC(O)C(F)(F)F)c3)nn2)s1)c1ccccc1 (centres unmarked) [Compound 604]

pIC50 [2, 5]: 7.89
Compound: COC(C(=O)Nc1nnc(CCCCc2ccc(NC(=O)Cc3cccc(CNC(=O)CC(C)(O)C(F)(F)F)c3)nn2)s1)c1ccccc1 (centres unmarked) [Compound 605]

pIC50 [2, 5]: 8.15
Compound: CC(C(=O)Nc1nnc(CCCCc2ccc(NC(=O)Cc3cccc(CNC(=O)CC(O)C(F)(F)F)c3)nn2)s1)c1ccccc1 (centres unmarked) [Compound 606]

pIC50 [2, 5]: 8.15
Compound: CC(C(=O)Nc1nnc(CCCCc2ccc(NC(=O)Cc3cccc(CNC(=O)CC(C)(O)C(F)(F)F)c3)nn2)s1)c1ccccc1 (centres unmarked) [Compound 607]

pIC50 [2, 5]: 7.72
Compound: CC(C(=O)Nc1ccc(CCCCc2nnc(NC(=O)C(C)c3ccccc3)s2)nn1)c1ccccc1 (centres unmarked) [Compound 613]

Compound: CCCC(=O)OCN(C(=O)Cc1ccccc1)c1nnc(CCCCc2ccc(NC(=O)Cc3cccc(OC(F)(F)F)c3)nn2)s1 [Compound 629]
pIC50 [2, 5]: < 4.70

pIC50 [2, 5]: 8.30
Compound: CC(NC(=O)OC(C)(C)C)c1cc(CC(=O)Nc2nnc(CCCCc3ccc(NC(=O)Cc4ccccc4)nn3)s2)ccc1F (centres unmarked) [Compound 653]

pIC50 [2, 5]: 8.30
Compound: CC(NC(=O)OC(C)(C)C)c1cc(CC(=O)Nc2ccc(CCCCc3nnc(NC(=O)Cc4ccccc4)s3)nn2)ccc1F (centres unmarked) [Compound 654]

Source: US8604016B2, “Heterocyclic inhibitors of glutaminase” (Calithera Biosciences Inc., priority 2011, dated 2013)
